# Target: T1, N-formyl peptide receptor 2 (Homo sapiens, UniProt P25090)
# T1 sequence (P25090 whole entry): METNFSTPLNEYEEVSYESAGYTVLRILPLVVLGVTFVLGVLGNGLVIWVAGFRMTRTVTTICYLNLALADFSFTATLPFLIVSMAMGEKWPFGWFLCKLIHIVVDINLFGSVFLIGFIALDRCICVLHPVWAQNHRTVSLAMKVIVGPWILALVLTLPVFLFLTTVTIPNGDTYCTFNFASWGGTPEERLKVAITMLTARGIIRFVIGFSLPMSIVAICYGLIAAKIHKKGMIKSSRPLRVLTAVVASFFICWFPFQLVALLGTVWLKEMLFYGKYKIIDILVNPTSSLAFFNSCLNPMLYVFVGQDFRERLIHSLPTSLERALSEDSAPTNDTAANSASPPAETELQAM
# Test: FPRL1 binding inhibitor potency, dose response, cell-based, FPR counter-screen, fluorescent ligand (AID 520)
IC50,Ki,Structure (SMILES)
> 66.7 µM,,Cc1ccc(Nc2ccc(C(=O)O)cc2N)cc1 [3-amino-4-(4-methylanilino)benzoic acid]
> 66.7 µM,,"COc1ccc2ccccc2c1C1CC(=O)N2CN(C3CCCCC3)CSC2=C1C#N (configuration not stated) [3-cyclohexyl-8-(2-methoxynaphthalen-1-yl)-6-oxo-2,4,7,8-tetrahydropyrido[2,1-b][1,3,5]thiadiazine-9-carbonitrile]"
> 66.7 µM,> 40.3 µM,O=C1CCCC(=O)C1C(C#Cc1ccccc1)C1C(=O)CCCC1=O [3-hydroxy-2-[1-(2-hydroxy-6-keto-cyclohexen-1-yl)-3-phenyl-prop-2-ynyl]cyclohex-2-en-1-one]
> 66.7 µM,,"Cc1c(C(=O)NC2CCCc3ccccc32)oc2ccc(S(=O)(=O)N3CCOCC3)cc12 (configuration not stated) [3-methyl-5-(4-morpholinylsulfonyl)-N-(1,2,3,4-tetrahydronaphthalen-1-yl)-2-benzofurancarboxamide]"
> 66.7 µM,,"O=C(Nc1nnc(-c2ccccc2Cl)o1)c1ccc(S(=O)(=O)N2CCCCCC2)cc1 [4-(1-azepanylsulfonyl)-N-[5-(2-chlorophenyl)-1,3,4-oxadiazol-2-yl]benzamide]"
> 66.7 µM,,"CC1Oc2ccccc2N(Cc2ccccc2Cl)C1=O (configuration not stated) [4-(2-Chloro-benzyl)-2-methyl-4H-benzo[1,4]oxazin-3-one]"
> 66.7 µM,,"COc1ccc(-c2cc(C(F)(F)F)nc(N3CCCCC3)n2)cc1OC [4-(3,4-dimethoxyphenyl)-2-(1-piperidinyl)-6-(trifluoromethyl)pyrimidine]"
> 66.7 µM,,"COc1ccc(-c2cc(C(F)(F)F)nc(N3CCN(c4ccccc4)CC3)n2)cc1OC [4-(3,4-dimethoxyphenyl)-2-(4-phenyl-1-piperazinyl)-6-(trifluoromethyl)pyrimidine]"
> 66.7 µM,,CCOC(=O)c1ccc(NC(=O)Nc2ccc3c4c(cccc24)C(=O)N3CC)cc1 [4-[(1-ethyl-2-keto-benzo[cd]indol-6-yl)carbamoylamino]benzoic acid ethyl ester]
> 66.7 µM,> 40.3 µM,"COC(=O)c1ccc(C2C(C(=O)c3ccc(OC)cc3)C(=O)C(=O)N2Cc2ccco2)cc1 (configuration not stated) [4-[(3Z)-1-(2-furanylmethyl)-3-[hydroxy-(4-methoxyphenyl)methylidene]-4,5-dioxo-2-pyrrolidinyl]benzoic acid methyl ester]"
> 66.7 µM,> 40.3 µM,"COC(=O)c1[nH]c(C)c(C(=O)C2C(=O)C(=O)N(CCN3CCOCC3)C2c2cccnc2)c1C (configuration not stated) [4-[(E)-hydroxy-[1-[2-(4-morpholinyl)ethyl]-4,5-dioxo-2-(3-pyridinyl)-3-pyrrolidinylidene]methyl]-3,5-dimethyl-1H-pyrrole-2-carboxylic acid methyl ester]"
> 66.7 µM,,"CCOC(=O)N1CCC(NC(=O)c2cc(C(=O)Nc3ccc(OC)c(OC)c3)ccc2CO)CC1 [4-[[5-[(3,4-dimethoxyphenyl)carbamoyl]-2-methylol-benzoyl]amino]piperidine-1-carboxylic acid ethyl ester]"
> 66.7 µM,,"O=C(c1ccc(Cl)cc1)N(Cc1cccs1)C1CCS(=O)(=O)C1 (configuration not stated) [4-chloro-N-(1,1-diketothiolan-3-yl)-N-(2-thenyl)benzamide]"
> 66.7 µM,,CC1CCN(c2nc(-c3ccccc3)c(C#N)c(=O)[nH]2)CC1 [4-hydroxy-2-(4-methylpiperidin-1-yl)-6-phenylpyrimidine-5-carbonitrile]
10.9 µM,,"O=C(O)CCCNc1cc(N2CCC3(CC2)OCCO3)c2noc3c2c1C(=O)c1ccccc1-3 [4-{[3-(1,4-dioxa-8-azaspiro[4.5]dec-8-yl)-6-oxo-6H-anthra[1,9-cd]isoxazol-5-yl]amino}butanoic acid]"
> 66.7 µM,,"COc1ccc(-c2nnc(Nc3nc4c(OC)cccc4s3)o2)c(OC)c1 [5-(2,4-dimethoxyphenyl)-N-(4-methoxy-1,3-benzothiazol-2-yl)-1,3,4-oxadiazol-2-amine]"
> 66.7 µM,,"Clc1ccc(C2CC(c3cccs3)n3ncnc3N2)cc1Cl (configuration not stated) [5-(3,4-dichlorophenyl)-7-(2-thienyl)-1,5,6,7-tetrahydro-[1,2,4]triazolo[1,5-a]pyrimidine]"
> 66.7 µM,,"Cc1cccc(C2CC(c3ccc(Cl)cc3)Nc3nc(N)nn32)c1 (configuration not stated) [5-(4-chlorophenyl)-7-(3-methylphenyl)-1,5,6,7-tetrahydro-[1,2,4]triazolo[1,5-a]pyrimidin-2-amine]"
> 66.7 µM,,O=C(Nc1ccc(Nc2ccccc2)cc1)c1ccc(Br)o1 [5-bromanyl-N-(4-phenylazanylphenyl)furan-2-carboxamide]
> 66.7 µM,,"COc1ccc(-c2nc(-c3ccc(NC(=O)c4ccc(Br)o4)cc3)no2)cc1OC [5-bromanyl-N-[4-[5-(3,4-dimethoxyphenyl)-1,2,4-oxadiazol-3-yl]phenyl]furan-2-carboxamide]"
> 66.7 µM,,"Cc1nc2c(C#N)c[nH]n2c(=O)c1Cc1ccccc1 [5-methyl-7-oxo-6-(phenylmethyl)-1H-pyrazolo[1,5-a]pyrimidine-3-carbonitrile]"

IC50,Ki,Structure (SMILES)
> 66.7 µM,,"CCCCCNC(=O)c1ccc2c(=O)[nH]c3c(C(=O)NCC4CCCO4)sc(=S)n3c2c1 (configuration not stated) [5-oxo-N3-(2-oxolanylmethyl)-N8-pentyl-1-sulfanylidene-4H-thiazolo[3,4-a]quinazoline-3,8-dicarboxamide]"
> 66.7 µM,> 40.3 µM,"Cc1ccsc1C1C2C(=O)CC(C)(C)CC2=Nc2ncnn21 (configuration not stated) [6,6-dimethyl-9-(3-methyl-2-thienyl)-1,5,7,9-tetrahydro-[1,2,4]triazolo[5,1-b]quinazolin-8-one]"
> 66.7 µM,,"Clc1ccc(Cc2nn3c(-c4ccncc4)nnc3s2)cc1 [6-(4-chlorobenzyl)-3-(4-pyridyl)-[1,2,4]triazolo[3,4-b][1,3,4]thiadiazole]"
> 66.7 µM,,COc1ccc(-c2nc(N3CCCC3)[nH]c(=O)c2C#N)cc1 [6-(4-methoxyphenyl)-4-oxidanylidene-2-pyrrolidin-1-yl-1H-pyrimidine-5-carbonitrile]
> 66.7 µM,,O=C(O)C1CC=CCC1C(=O)N1CCN(c2nc(-c3ccccc3)c3ccccc3n2)CC1 (configuration not stated) [6-[4-(4-phenylquinazolin-2-yl)piperazin-1-yl]carbonylcyclohex-3-ene-1-carboxylic acid]
> 66.7 µM,> 40.3 µM,"COc1cc(-n2nc(C)c3c2OC(=N)C(C#N)C3c2ccccc2)c(Cl)c(Br)c1O (configuration not stated) [6-amino-1-(3-bromo-2-chloro-4-hydroxy-5-methoxyphenyl)-3-methyl-4-phenyl-1,4-dihydropyrano[2,3-c]pyrazole-5-carbonitrile]"
> 66.7 µM,> 40.3 µM,"CSCCC1c2c(-c3cccs3)n[nH]c2OC(=N)C1C#N (configuration not stated) [6-azanyl-4-(2-methylsulfanylethyl)-3-thiophen-2-yl-2,4-dihydropyrano[2,3-c]pyrazole-5-carbonitrile]"
> 66.7 µM,,"Cc1c(C)c2cc(Cl)c(O)c(CN3CCCCC3)c2oc1=O [6-chloranyl-3,4-dimethyl-7-oxidanyl-8-(piperidin-1-ylmethyl)chromen-2-one]"
> 66.7 µM,,Oc1cc(-c2ccccc2)nc(N2CCN(Cc3ccccc3)CC2)n1 [6-phenyl-2-[4-(phenylmethyl)-1-piperazinyl]-1H-pyrimidin-4-one]
> 66.7 µM,,"COc1ccc2cnn(-c3ccccc3)c(=O)c2c1OC [7,8-dimethoxy-2-phenyl-1(2H)-phthalazinone]"
> 66.7 µM,,COc1ccc2c(=O)c(-c3cnn(-c4ccccc4)c3)c(C)oc2c1 [7-methoxy-2-methyl-3-(1-phenyl-1H-pyrazol-4-yl)-4H-chromen-4-one]
> 66.7 µM,> 40.3 µM,"Cc1ccc(C2c3c([nH]c(=S)[nH]c3=O)N=C3CC(C)(C)CC(=O)C32)cc1 (configuration not stated) [8,8-dimethyl-5-(4-methylphenyl)-2-sulfanylidene-5,7,9,10-tetrahydro-1H-pyrimido[4,5-b]quinoline-4,6-dione]"
> 66.7 µM,,COc1ccccc1Oc1c(C)oc2c(CN(C)C)c(O)ccc2c1=O [8-Dimethylaminomethyl-7-hydroxy-3-(2-methoxy-phenoxy)-2-methyl-chromen-4-one]
> 66.7 µM,,"COc1ccc(OC)c(C(=O)c2nc3c(n2O)CCCCC3)c1 [(2,5-dimethoxyphenyl)-(3-hydroxy-5,6,7,8-tetrahydro-4H-cyclohept[d]imidazol-2-yl)methanone]"
15 µM,,Nc1ccc(Nc2ccccc2N)cc1 [(2-aminophenyl)-(4-aminophenyl)amine]
> 66.7 µM,,"COC(=O)[C@H](C(C)C)n1c(C)c(C(C)=O)c(C(C)=O)c1C [(2S)-2-(3,4-diacetyl-2,5-dimethyl-1-pyrrolyl)-3-methylbutanoic acid methyl ester]"
> 66.7 µM,> 40.3 µM,"C=CCN1C(=O)C2(c3ccccc31)C(C(=O)c1ccc3c(c1)OCCO3)C(=O)C(=O)N2CCCOC (configuration not stated) [(4'E)-1-allyl-4'-[2,3-dihydro-1,4-benzodioxin-6-yl(hydroxy)methylene]-1'-(3-methoxypropyl)spiro[indoline-3,5'-pyrrolidine]-2,2',3'-trione]"
> 66.7 µM,,CCCS(=O)(=O)N1CCCC(C(=O)N2CCC(Cc3ccccc3)CC2)C1 (configuration not stated) [(4-benzylpiperidin-1-yl)-(1-propylsulfonylpiperidin-3-yl)methanone]
> 66.7 µM,,Cc1ccc(Nc2nc(C3CC3)cs2)cc1 [(4-cyclopropylthiazol-2-yl)-(p-tolyl)amine]
> 66.7 µM,> 40.3 µM,"COc1cc(C2C(C(=O)c3ccc4c(c3)CC(C)O4)C(=O)C(=O)N2CCCn2ccnc2)ccc1O (configuration not stated) [(4E)-1-(3-imidazol-1-ylpropyl)-5-(3-methoxy-4-oxidanyl-phenyl)-4-[(2-methyl-2,3-dihydro-1-benzofuran-5-yl)-oxidanyl-methylidene]pyrrolidine-2,3-dione]"

Structure (SMILES),IC50,Ki
"CC1=C(C(=O)OC(C)C)[C@]2(C(=O)N(CC(N)=O)c3ccccc32)C(C#N)C(=N)O1 (stereo partly drawn) [(3R)-6'-amino-1-(2-amino-2-keto-ethyl)-5'-cyano-2-keto-2'-methyl-spiro[indoline-3,4'-pyran]-3'-carboxylic acid isopropyl ester]",> 66.7 µM,> 40.3 µM

# — BindingDB's records for doi:10.7270/Q2DF6PMF (Nmmlsc, 2007)
